68 molecules from PubChem BioAssay AID602296 (Broad Institute, 2012) can be followed below.

This test relates to NIH3T3-HGL HSF-1 response element luciferase, 48 h. The test is described as follows: HSF-1 reporter activators over prolonged exposure, confirmation, cell-based, mouse, luciferase, cherry-pick, dose (AID 602296).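 Note: test compounds applied by themselves with no MG132 co-treatment.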

Results filed as inconclusive are left out. Calls of active or inactive are those of the source.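 Rule for the calls: active = fitted activation curve crossing 40% at a concentration no higher than the sample's top valid tested dose; inconclusive = flat fitted curve at 30% to 70% activation, or poor curve fit; inactive = signal decrease, flat curve within 30%, or the rest.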

`NC(N)=NS(=O)(=O)c1ccc(NC(=S)NC(=O)c2ccc(Br)cc2)cc1`: the AC40 was 17.5 µM.

For `Cc1ccc(S(=O)(=O)CCN2CCN(c3ccccc3)CC2)cc1`, the AC40 is > 26 µM (inactive). The same measure for `O=C(/C=C/Sc1ccccc1)c1ccc(Cl)cc1`: 4.33 µM; for `CCC(C)(C)c1ccc(OC(=O)c2cccnc2Cl)cc1`: > 26 µM (inactive). For `CCOC(=O)c1cccc(NC(=O)Cn2c(CC(=O)NC)nc3ccccc32)c1`, the AC40 was > 26 µM (inactive). On to `Cc1nn(C(C)C(=O)NCCCN2CCCCC2C)c(=O)c2c1sc1ccccc12` (stereo not drawn), for which the AC40 is > 26 µM (inactive). The value for `COc1ccc(/C=C/C(=O)NCCCc2ccccc2)cc1` was > 26 µM (inactive); that for `CC(C)(C)NC(=O)c1cccc(NC(=O)CSc2ccc(Cl)cc2)c1` was > 26 µM (inactive); that for `CCNC(=S)N/N=C/c1ccc(-c2ccccc2)o1` was > 26 µM (inactive). The same measure for `COc1ccc(-c2nc(C#N)c(N3CCCCC3)o2)cc1`: > 26 µM (inactive). With `COCCNC(=S)N/N=C/c1ccc(N2CCOCC2)cc1`, the AC40 was > 26 µM (inactive). The value for `Cc1ccc2cccnc2c1NC(=S)NC(=O)c1ccccc1` was > 26 µM (inactive); that for `CC(C)(C)NC(=O)c1ccc2c(c1)N(CC(=O)N1CCCCC1)C(=O)C(C)(C)O2` was > 26 µM (inactive); that for `Clc1ccc(SCc2csc(N3CCOCC3)n2)cc1` was > 26 µM (inactive). For `c1ccc2c(Nc3nnc(-c4ccncc4)s3)cccc2c1`, the AC40 was 1.24 µM. For `COc1ccc(Cc2nnc(SCC(=O)Nc3ccc(N4CCOCC4)cc3)o2)cc1`, the AC40 was > 26 µM (inactive). Take `C=CCN1C(=O)C(Cc2ccc(OCC)cc2)SC1=Nc1ccc(C(=O)O)cc1` (stereo not drawn): the AC40 is > 26 µM (inactive).

As for `N#Cc1ccsc1NC(=O)CN1CCN(S(=O)(=O)c2ccc3ccccc3c2)CC1`, the AC40 was > 26 µM (inactive). The same measure for `CC(=O)N1N=C(c2ccccc2)CC1c1ccccc1[N+](=O)[O-]` (stereo not drawn): 16 µM; for `C/C(=N\NC(=O)c1ccoc1C)c1cccc2ccccc12`: 10.2 µM.

Take `CN(c1ccccc1)c1nc(N)c([N+](=O)[O-])c(N2CCCCCC2)n1`: the AC40 was > 26 µM (inactive). The same measure for `CCCC(=O)Nc1cc(-c2nn(C)c(=O)c3ccccc23)ccc1OC`: > 26 µM (inactive); for `Cc1onc(-c2ccccc2)c1C(=O)N=C(N)c1ccc(C(F)(F)F)cc1`: > 26 µM (inactive). The same measure for `CC(C)(CN)CC(=O)O`: > 26 µM (inactive); for `COc1ccc(-c2coc3cc4oc(=O)c(CC(=O)O)c(C)c4cc23)cc1`: > 26 µM (inactive); for `CC1(c2ccc([N+](=O)[O-])cc2)NC(=O)N(CC(=O)c2ccc3c(c2)OCO3)C1=O` (stereo not drawn): > 26 µM (inactive). The same measure for `O=C1CCC(/C=C/c2ccccc2)=NN1`: > 26 µM (inactive). As to `CN(C)CCCn1c(N)c(C#N)c2nc(C#N)c(C#N)nc21`, the AC40 is > 12 µM (inactive). The value for `CCOc1ccccc1-c1noc(CCCC(=O)NC2CCCCC2)n1` was > 26 µM (inactive); that for `Cc1cc2c(cc1C)-c1nnnn1C(C)(C)C2` was > 26 µM (inactive); that for `CC(C)(C)c1ccc(COc2ccsc2C(=O)O)cc1` was 4.42 µM. Turning to `COc1ccc(-n2cnnc2SCC(=O)N(C)C2CCS(=O)(=O)C2)cc1` (stereo not drawn), the AC40 was > 26 µM (inactive). Regarding `COc1cc(OC)c(OC)cc1CN(C)CCc1ccccn1`, the AC40 is 25.8 µM.

In the case of `COc1ccc(OCc2nnnn2-c2ccccc2)cc1`, the AC40 is 25.7 µM.

Regarding `O=C1NC(=S)S/C1=C/c1ccc(OC(=O)c2ccco2)cc1`, the AC40 was 22.5 µM. Take `CCCCC(=O)OCC(=O)c1[nH]c(C)c(C(=O)OCC)c1C`: the AC40 is 7.5 µM. The value for `NC1=NC(=O)/C(=C/c2cn(Cc3ccccc3)c3ccccc23)S1` was 9.09 µM; that for `O=C(CSc1nnc(-c2cccs2)o1)N1CCCc2ccccc21` was > 26 µM (inactive). The value for `COc1ccc(OC)c(-n2c(=O)c3ccccc3c3ccccc3c2=O)c1` was 12.4 µM; that for `Cc1cc(C)cc(NC(=O)CN(C)S(=O)(=O)c2cnc[nH]2)c1` was > 26 µM (inactive); that for `O=C(CCS(=O)(=O)c1ccccc1)Nc1ccccn1` was > 26 µM (inactive). The value for `CC(C)=NN1C(=O)c2ccccc2NC1(C)C` was > 26 µM (inactive); that for `CCOc1cccc(/C=C/c2ccc3cccc(O)c3n2)c1OC` was > 26 µM (inactive); that for `Cc1noc(NS(=O)(=O)c2ccc(NC(=O)c3oc4ccc(F)cc4c3C)cc2)c1C` was > 26 µM (inactive). As to `O=C(NC1CCCCC1)C1CCCN1S(=O)(=O)c1cccc2nsnc12` (stereo not drawn), the AC40 is > 26 µM (inactive). The value for `Cc1noc2ncnc(Sc3ccc(Br)cc3)c12` was > 26 µM (inactive); that for `CC(C)(CNC(=O)/C=C/c1ccc(F)cc1)CNC(=O)/C=C/c1ccc(F)cc1` was > 26 µM (inactive). The same measure for `C=CC[n+]1c(-c2ccc(OC)cc2)csc1NNC(=O)Nc1ccccc1`: > 12 µM (inactive). As for `COC(=O)[C@@H](Cc1c[nH]c2ccccc12)NC(=O)c1ccc2c(c1)OCO2`, the AC40 is 3.28 µM. Turning to `O=C(Nc1cccn2ncnc12)C(F)(F)F`, the AC40 is > 26 µM (inactive). The same measure for `CCOC(=O)C(CCOc1cccc(CC)c1)C(=O)OCC`: > 26 µM (inactive).

Regarding `COC(=O)[C@@H]1C[C@]2(OC(=O)c3ccccc3)C=CC(=O)C[C@@H]2N1C(=O)OCc1ccccc1`, the AC40 was 12.4 µM. The value for `CN(CCC1CCCCO1)C(=O)CCc1nnc(CCCCc2ccccc2)o1` (stereo not drawn) was 5.66 µM; that for `O=C(NC1C(=O)NNC1c1ccccc1)c1ccccc1` (stereo not drawn) was 6.88 µM; that for `CC(=O)Nc1ccc(N/C=C/C(=O)C(C)(C)C)cc1` was > 26 µM (inactive). The same measure for `Cc1ccc(C(=O)NC(=C(Cl)Cl)S(=O)(=O)c2ccc(Cl)cc2)cc1`: 8.29 µM; for `CCCC12CN3CC(C)(CN(C1)C3c1ccc3c(c1)OCO3)C2=O` (stereo not drawn): > 26 µM (inactive). The value for `O=C(NCCN1CCN(C(=O)c2ccc(Br)cc2)CC1)c1ccc(Br)cc1` was > 26 µM (inactive); that for `CCC1CCCCN1C(=O)COC(=O)c1cc2ccccc2cc1O` (stereo not drawn) was > 26 µM (inactive). For the molecule `O=C(Nc1cccn(Cc2c(Cl)cccc2Cl)c1=O)c1ccccc1Cl`, the AC40 was > 26 µM (inactive).

Take `COc1cccc(CNc2ccc(Br)cn2)c1O`: the AC40 was 12.2 µM. The value for `COc1ccc(/C=C(\NC(=O)c2ccccc2)C(=O)N/N=C/c2sccc2C)cc1` was > 26 µM (inactive); that for `CCC(=O)Nc1cccc(C(=O)/C=C/c2ccc(F)cc2)c1` was 11.2 µM; that for `Cc1ccccc1CC1(CO)CCCN(C(=O)c2ccccc2Cl)C1` (stereo not drawn) was > 26 µM (inactive). For the molecule `N#C/C(C(=O)NCc1ccccc1)=C1/N=C(NC(=O)c2ccco2)c2ccccc21`, the AC40 was > 26 µM (inactive). The value for `Cc1cc(C)n2nc(N)c(N=Nc3cccc(Cl)c3)c2n1` was > 26 µM (inactive); that for `Cc1ccc2nc(NCc3ccccc3)c(C=O)c(=O)n2c1` was 11 µM; that for `CC(C)NCC(O)COCc1ccc(Cl)cc1` (stereo not drawn) was > 26 µM (inactive).
